# In ChEMBL document CHEMBL1145365, “The discovery of long acting beta2-adrenoreceptor agonists” (Bioorg Med Chem Lett, 2007):
# Assays:
# [1] = target: Beta-2 adrenergic receptor (Cavia porcellus) (UniProt Q8K4Z4); assay: Agonist potency at beta-2 adrenoceptor in guinea pig trachea model relative to salmeterol; type: functional, tissue-based
# [2] = Distribution coefficient, log D of the compound; conditions: octanol/water
# [3] = Volume of distribution in iv dosed rat; type: ADME, organism-based; conditions: in vivo, read-out: Vdss
# [4] = target: Beta-2 adrenergic receptor (Cavia porcellus) (UniProt Q8K4Z4); assay: Effect on guinea pig trachea model assessed as duration of muscle tone; type: functional, tissue-based; conditions: Muscle tissue
# [5] = Half life in human liver microsome at 1 uM
# [6] = in vitro; conditions: human, Caco-2, pH 7.4
# Description: Permeability from apical to basolateral side of the Caco-2 cell membrane at 25 uM in pH 7.4
# [7] = target: Beta-2 adrenergic receptor (Homo sapiens, UniProt P07550)
# Sequence of Beta-2 adrenergic receptor (P07550 whole entry): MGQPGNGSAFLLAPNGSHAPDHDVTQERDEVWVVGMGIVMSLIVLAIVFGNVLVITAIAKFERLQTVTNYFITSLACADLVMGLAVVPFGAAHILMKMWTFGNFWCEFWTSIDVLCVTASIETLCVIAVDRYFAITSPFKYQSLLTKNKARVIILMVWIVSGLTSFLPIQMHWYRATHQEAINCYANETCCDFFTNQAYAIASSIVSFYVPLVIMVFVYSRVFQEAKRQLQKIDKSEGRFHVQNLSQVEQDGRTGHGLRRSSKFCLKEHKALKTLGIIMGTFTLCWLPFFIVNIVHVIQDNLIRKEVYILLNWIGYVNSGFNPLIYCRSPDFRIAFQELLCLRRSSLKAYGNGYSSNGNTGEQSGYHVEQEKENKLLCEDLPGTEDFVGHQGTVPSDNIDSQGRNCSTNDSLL
# Description: Agonist activity at human recombinant beta-2 adrenoceptor expressed in CHO cells assessed as elevation of cAMP
# [8] = Clearance in iv dosed rat; type: ADME, organism-based; conditions: in vivo
# [9] = Half life in iv dosed rat; type: ADME, organism-based; conditions: in vivo
# Sequence of Beta-2 adrenergic receptor (Cavia porcellus) (Q8K4Z4 whole entry, looked up): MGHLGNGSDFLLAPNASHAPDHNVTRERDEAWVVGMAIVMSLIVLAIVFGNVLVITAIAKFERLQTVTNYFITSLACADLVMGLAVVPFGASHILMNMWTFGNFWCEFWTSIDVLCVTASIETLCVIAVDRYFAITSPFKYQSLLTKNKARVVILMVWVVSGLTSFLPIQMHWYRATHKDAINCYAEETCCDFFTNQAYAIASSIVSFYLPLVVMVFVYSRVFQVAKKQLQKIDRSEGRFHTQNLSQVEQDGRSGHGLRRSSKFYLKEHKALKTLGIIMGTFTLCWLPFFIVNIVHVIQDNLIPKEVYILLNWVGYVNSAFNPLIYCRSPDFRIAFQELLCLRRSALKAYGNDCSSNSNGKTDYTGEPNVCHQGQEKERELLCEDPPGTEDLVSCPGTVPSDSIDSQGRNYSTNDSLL
Structure (SMILES),Activity [1],logD [2],TIME [4] [h],half-life at 1 µM ([5]; liver microsomes) [min],other results
OCc1cc([C@@H](O)CNCCCCCCOCCCCc2ccccc2)ccc1O [SALMETEROL],1,2.5,–,–,Vd [3]: 16.6 L/kg
C[C@H](Cc1cccc(CC(=O)NCc2cc(C(F)(F)F)ccc2F)c1)NC[C@H](O)c1ccc(O)c(CO)c1,0.9,–,6.6,–,half-life at 1 µM ([5]; microsomes): 9 min
C[C@H](Cc1cccc(CC(=O)NC2Cc3ccccc3C2)c1)NC[C@H](O)c1ccc(O)c(CO)c1,0.1,1.6,5.4,–,Papp A→B at 25 µM [6]: 1 ×10⁻⁶ cm/s
CC(C)(Cc1cccc(CC(=O)NCc2ccccc2)c1)NC[C@H](O)c1ccc(O)c(CO)c1,–,1,–,–,EC50 [7]: 0.02 nM
Cc1ccc(CNC(=O)Cc2cccc(C[C@@H](C)NC[C@H](O)c3ccc(O)c(CO)c3)c2)cc1C,0.5,2.2,4.6,10,–
C[C@H](Cc1cccc(CC(=O)NCc2ccc(Cl)c(Cl)c2)c1)NC[C@H](O)c1ccc(O)c(CO)c1,0.4,2.6,9,4,clearance [8]: 123 mL/min/kg; half-life [9]: 90 min; Vd [3]: 16.6 L/kg; Papp A→B at 25 µM [6]: 1 ×10⁻⁶ cm/s
C[C@H](Cc1cccc(CC(=O)NCc2ccccc2)c1)NC[C@H](O)c1ccc(O)c(CO)c1,–,0.8,–,–,EC50 [7]: 0.096 nM

# Now from value to compound, other results behind:
Activity [1],logD [2],TIME [4] [h],half-life at 1 µM ([5]; liver microsomes) [min],Structure (SMILES),other results
0.07,–,5.2,–,C[C@H](Cc1cccc(CC(=O)NCc2c(F)cccc2Cl)c1)NC[C@H](O)c1ccc(O)c(CO)c1,–
0.3,0.8,1.5,–,COc1cccc(OC)c1CNC(=O)Cc1cccc(C[C@@H](C)NC[C@H](O)c2ccc(O)c(CO)c2)c1,–
1,1.5,3.9,2,C[C@H](Cc1cccc(CC(=O)NCc2cccc3ccccc23)c1)NC[C@H](O)c1ccc(O)c(CO)c1,–
–,0.4,–,–,O=C(Cc1cccc(CCNC[C@H](O)c2ccc(O)c(CO)c2)c1)NCc1ccccc1,EC50 [7]: 0.096 nM
1,2.4,8.1,15,C[C@H](Cc1cccc(CC(=O)NCc2ccc(OC(F)(F)F)cc2)c1)NC[C@H](O)c1ccc(O)c(CO)c1,–
0.5,2.3,7.2,–,C[C@H](Cc1cccc(CC(=O)NCc2cc(Cl)cc(Cl)c2)c1)NC[C@H](O)c1ccc(O)c(CO)c1,Papp A→B at 25 µM [6]: 1 ×10⁻⁶ cm/s
